The values below come from US20140249198A1, “MELATONIN AND ITS USE IN PREVENTING POSTOPERATIVE COMPLICATIONS” (NUTRI-FIT GMBH & CO., KG, priority 2004, published 2014).

The structures appear in SMILES notation.

Assay [1] deals with rat middle cerebral artery occlusion model. To be noted: pretreatment with melatonin; cited from earlier work.
Another assay has as its system neonates. To be noted: treatment started within 3 hours after the end of surgery; cited from earlier work.
The test system of assay [2] is female Sprague Dawley rats. Nature of the assay: Partial liver resection with ischemia/reperfusion in rats, preoperative melatonin by gavage. In kind it is in vivo, rat. On the procedure:
Ischemia and subsequent reperfusion of organs and tissues induced by clamping of blood vessels to prevent excessive bleeding, are unavoidable during surgical procedures. Such a standard ischemia/reperfusion situation can be simulated by a partial hepatectomy in a clinically relevant rat surgical model.
In this animal model, female Sprague Dawley rats (200-220 g) undergo a median laparotomy followed by clamping of the right lateral liver lobe for 20 min resulting in a hypoxia in about 30% of the entire organ. After reperfusion of the ischemic tissue, the remaining 70% of the liver, the non-ischemic middle and left lateral liver lobes are surgically removed and the surgical incision is closed. During a follow up period of maximal 7 days the effects of ischemia/reperfusion are observed with respect to liver damage and survival.
In this rat model the operative trauma of performing a laparotomy introduces a first hypoxia in the liver. The subsequent partial clamping of the blood supply to the liver and the following partial resection of a large part of liver tissue results in additional ischemia. During the subsequent reperfusion the actual free radical-induced damage to the liver tissue occurs. This actual damage to many cells of the liver tissue in regions of the remaining parts of the organ is now determined by the release of enzymes such as liver transaminases, alkaline phosphatase after various time points following partial liver resection.
After reperfusion of the ischemic tissue, the remaining 70% of the liver, the non-ischemic middle and the left lateral liver lobes were surgically removed and the surgical incision was closed.
In this rat model the operative trauma of performing a laparotomy introduced a first hypoxia in the liver. […] During the subsequent reperfusion the actual free radical-induced damage to the liver tissue occurred. This actual damage to many cells of the liver tissue in regions of the remaining parts of the organ was now determined by the release of enzymes such as liver transaminases (AST, ALT) and alkaline phosphatase after various time points following partial liver resection.
Melatonin was administered in various concentrations (0, 10, 20, 50 mg/kg body weight) by gavage of a control (5% ethanol in water; 0 mg/kg body weight melatonin) or a melatonin-containing aqueous solution (5% ethanol) into the stomach of the 10 rats of each of the four groups 2 hours before the surgery.

The test system of another assay is neutrophils. The settings on record: in vitro; apoptosis delayed following hepatectomy; cited from earlier work.
The subject of a further assay is mice. To be noted: short term administration after surgery-induced hemorrhagic shock, mice subjected to septic challenge; cited from earlier work.
Setting [3] is: 10, 20, 50 mg/kg body weight by gavage 2 hours before surgery, 3 and 8 h after partial liver resection, vs control, FIG. 1.

For the compound `COc1ccc2[nH]cc(CCNC(C)=O)c2c1` [Melatonin, N-acetyl-5-methoxytryptamin], the “volume of cerebral infarction” value in assay [1] is given as “reduce the volume of cerebral infarction”. In the assay with neonates, the “clinical parameters of inflammation” value is given as “progressive reduction of clinical parameters of inflammation”. Also, the “survival after 7 days” value in assay [2] (10 mg/kg body weight preoperatively, vs control, FIG. 3) is “significant increase in survival”. For the same compound, the “alkaline phosphatase (ALP) activity (indicates regeneration of the liver)” value in assay [2] (50 mg/kg body weight preoperatively, 3, 8, 48 h and 1 week after partial liver resection, vs control, FIG. 2) is “increased ALP activity after 48 h reaching statistical significance after 1 week”. Moreover, in assay [2] (setting [3]), the “level of alanine transferase (ALT)” value is “amelioration of the massive increase” and the “level of aspartate transferase (AST)” value is given as “amelioration of the massive increase”. For the same compound, the “hypoxia of liver tissue” value in assay [2] (preoperative application, partial liver resection in rats) is reported as “reduces the increase in hypoxia of liver tissue”. The “extent of necrosis following ischemia/reperfusion of the liver” value in assay [2] (preoperative application, rats) is on record as “reduces the extent of necrosis”. Further, the “apoptosis activity in neutrophils” value in the assay on neutrophils is on record as “enhances apoptosis activity in neutrophils”. Besides, the survival entry in the assay on mice is “significantly improved survival”.
